Assay results published in PubChem BioAssay AID1845228.

Details: pampa; 60.0 min; 50.0 µM

Row | Compound | Papp
1 | CCOC(CCCn1cnc2c(c(-c3ccccc3)c(-c3ccccc3)n2CCc2ccccc2)c1=N)OCC | < 1 ×10⁻⁶ cm/s
2 | CC(=O)NC[C@H]1CN(c2ccc(N3CCOCC3)c(F)c2)C(=O)O1 | 5 ×10⁻⁶ cm/s
3 | CNC(=O)C1CCN(C(=O)c2ccc(-c3ncc4cnc(-c5ccccc5)cn34)cc2)CC1 | 12 ×10⁻⁶ cm/s
4 | CS/C=C/C(=O)O[C@@H]1CCC2=CC(=O)C(=C(C)C)C[C@]2(C)[C@H]1C | 77 ×10⁻⁶ cm/s
5 | COc1cc2c(cc1OC)[C@@H](Cc1cc(OC)c(OC)c(OC)c1)[N+](C)(CCCOC(=O)CC/C=C/CCC(=O)OCCC[N+]1(C)CCc3cc(OC)c(OC)cc3[C@H]1Cc1cc(OC)c(OC)c(OC)c1)CC2 (stereo not given in full) | < 1 ×10⁻⁶ cm/s
6 | COc1cc(Cc2cnc(N)nc2N)c(C(C)C)cc1OC | 48 ×10⁻⁶ cm/s
7 | N=c1c2c(-c3ccccc3)c(-c3ccccc3)n(Cc3ccccc3)c2ncn1CC1CCCO1 (stereo not given) | 207 ×10⁻⁶ cm/s
8 | Cc1nn(C)c(C)c1-c1cccc2c1CCC(N(C)C)C2 (stereo not given) | 13.4 ×10⁻⁶ cm/s
9 | N=c1c2c(-c3ccccc3)cn(Cc3ccccc3)c2ncn1CCO | 113 ×10⁻⁶ cm/s
10 | Nc1nc(N)c2c(OCC3CCN(Cc4ccccc4F)CC3)cccc2n1 | 12 ×10⁻⁶ cm/s
11 | O=C(O)Cc1ccc2c(c1)C(=O)c1ccccc1CO2 | < 1 ×10⁻⁶ cm/s
12 | C[C@@H](O)[C@H]1C(=O)N2C(C(=O)O)=C([C@H]3CCCO3)S[C@H]12 | < 1 ×10⁻⁶ cm/s
13 | CC(=O)Nc1c(I)c(C(=O)N[C@H]2C(O)O[C@H](CO)[C@@H](O)[C@@H]2O)c(I)c(N(C)C(C)=O)c1I (stereo not given in full) | 2 ×10⁻⁶ cm/s
14 | CC(=O)c1cc(C(=O)N[C@@H](C)Cn2ccc(-c3ccc(C#N)c(Cl)c3)n2)[nH]n1 | 164 ×10⁻⁶ cm/s
15 | CCN(CC)CCCC(C)Nc1ccnc2cc(Cl)ccc12 (stereo not given) | 8 ×10⁻⁶ cm/s
16 | CCn1c(C(=O)N(C2CC2)C2CC2)cc2c3c(ncn3C)c(Nc3cc(C)n(C)n3)nc21 | 31 ×10⁻⁶ cm/s
17 | CC(C)c1cc(-c2n[nH]c(=O)n2-c2ccc3c(ccn3C)c2)c(O)cc1O | 79.5 ×10⁻⁶ cm/s
18 | CCNC(=O)c1cc2c(-c3cc(OCCN4CCCC4)c(Cl)cc3Cl)nc(N)nc2s1 | 123 ×10⁻⁶ cm/s
19 | CCS(=O)(=O)N1CC(CC#N)(n2cc(-c3ncnc4[nH]ccc34)cn2)C1 | < 1 ×10⁻⁶ cm/s
20 | N=c1c2c(-c3ccccc3)c(-c3ccccc3)n(CCc3ccccc3)c2ncn1CC1CCCO1 (stereo not given) | 269 ×10⁻⁶ cm/s

Row | Compound | Papp
21 | N=c1c2c(-c3ccccc3)c(-c3ccccc3)n(Cc3ccccc3)c2ncn1Cc1ccc2c(c1)OCO2 | 3 ×10⁻⁶ cm/s
22 | CC[C@@H](c1ccc(F)c(F)c1)n1c(C(=O)OC)c(-c2ccno2)[nH]c1=S | 195 ×10⁻⁶ cm/s
23 | Cc1onc(-c2ccccc2)c1C(=O)N[C@@H]1C(=O)N2[C@@H]1SC(C)(C)[C@@H]2C(=O)O | 8 ×10⁻⁶ cm/s
24 | Cn1nnnc1Sc1ncnc2scc(-c3cccc4ccccc34)c12 | 265 ×10⁻⁶ cm/s
25 | CCOc1ccc(-c2nn3ncccc3c2-c2ccc(S(C)(=O)=O)cc2)cc1 | 111 ×10⁻⁶ cm/s
26 | O=C(NCc1cnccn1)c1ccc(-c2ncc3cnc(-c4cccc(F)c4)cn23)cc1 | 94 ×10⁻⁶ cm/s
27 | O=C(NCCc1cnc[nH]1)c1ccc(-c2ncc3cnc(-c4cccc(F)c4)cn23)cc1 | < 1 ×10⁻⁶ cm/s
28 | Cn1c2cc(C=O)sc2c2cnn(Cc3ccccc3F)c(=O)c21 | 270 ×10⁻⁶ cm/s
29 | COc1cc(Cc2cnc(N)nc2N)cc(OC)c1OC | 14 ×10⁻⁶ cm/s
30 | O=C(CCl)Nc1cccc(NC2=NS(=O)(=O)c3ccccc32)c1 | 5.9 ×10⁻⁶ cm/s
31 | N=c1c2c(-c3ccccc3)cn(Cc3ccccc3)c2ncn1C1CCC(O)CC1 (stereo not given) | 217 ×10⁻⁶ cm/s
32 | Nc1ncnc2c1ncn2CCNCCCCCO | < 1 ×10⁻⁶ cm/s
33 | CCN(CC)CCCN(c1ccccc1)C1Cc2ccccc2C1 | 125 ×10⁻⁶ cm/s
34 | CC1CN(c2cc3c(cc2F)c(=O)c(C(=O)O)cn3-c2ccc(F)cc2F)CCN1 (stereo not given) | 5 ×10⁻⁶ cm/s
35 | CCC(=O)C1=C(c2ccc(F)cc2)N(C(=O)CC)n2cnnc2S1 | 189 ×10⁻⁶ cm/s
36 | C[n+]1c2cc(N)ccc2cc2ccc(N)cc21 | < 1 ×10⁻⁶ cm/s
37 | CSCC[C@H](NC(=O)[C@H](Cc1ccccc1)NC(=O)CNC(=O)CNC(=O)[C@@H](N)Cc1ccc(O)cc1)C(=O)O | < 1 ×10⁻⁶ cm/s
38 | COc1ccc2c(c1)C(c1ccc(F)cc1)=C(CN1CCCC1)CO2 | 100 ×10⁻⁶ cm/s
39 | COCCn1cnc2c(c(-c3ccccc3)c(-c3ccccc3)n2CCc2ccccc2)c1=N | 116 ×10⁻⁶ cm/s
40 | [O-][n+]1cccc(/C(Cl)=N/OC[C@@H](O)CN2CCCCC2)c1 | 2 ×10⁻⁶ cm/s
